Experimental data from ChEMBL document CHEMBL1201862, “PubChem BioAssay data set” (2004).
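Assay format: 96-well plates, 48-hour exposure. Here, GI50 denotes the concentration required for 50% inhibition of growth.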 The source made the active and inactive calls. No stated cut-off is given here; in the data, active = GI50 up to about 1.1 µM and inactive = higher.

How the values were obtained:
Assay in all cases: DTP human tumour cell line panel, 48 h
DU-145 = tested on: DU-145
UO-31 = tested on: UO-31
MDA-MB-435 = tested on: MDA-MB-435
HL-60 = tested on: HL-60
U-251 = tested on: U-251
K562 = tested on: K562
SK-MEL-2 = tested on: SK-MEL-2
OVCAR-3 = tested on: OVCAR-3
HCC 2998 = tested on: HCC 2998
A549 = tested on: A549
IGROV-1 = tested on: IGROV-1
UACC-257 = tested on: UACC-257
CAKI-1 = tested on: CAKI-1
Hs-578T = tested on: Hs-578T
OVCAR-4 = tested on: OVCAR-4
A498 = tested on: A498
MDA-MB-231 = tested on: MDA-MB-231
T47D = tested on: T47D
HCT-116 = tested on: HCT-116
COLO 205 = tested on: COLO 205
HT-29 = tested on: HT-29
SR = tested on: SR
SN12C = tested on: SN12C
OVCAR-8 = tested on: OVCAR-8
SF-295 = tested on: SF-295
KM12 = tested on: KM12
OVCAR-5 = tested on: OVCAR-5
BT-549 = tested on: BT-549
SF-268 = tested on: SF-268
RPMI-8226 = tested on: RPMI-8226
MCF7 = tested on: MCF7
PC-3 = tested on: PC-3
SNB-19 = tested on: SNB-19
786-0 = tested on: 786-0
NCI-H460 = tested on: NCI-H460
EKVX = tested on: EKVX
MOLT-4 = tested on: MOLT-4
RXF 393 = tested on: RXF 393
M14 = tested on: M14
HOP-92 = tested on: HOP-92
MDA-N = tested on: MDA-N
HCT-15 = tested on: HCT-15
ACHN = tested on: ACHN
UACC-62 = tested on: UACC-62
HOP-62 = tested on: HOP-62
SK-MEL-5 = tested on: SK-MEL-5
CCRF-CEM = tested on: CCRF-CEM
NCI-H23 = tested on: NCI-H23
SNB-75 = tested on: SNB-75
TK-10 = tested on: TK-10
SK-MEL-28 = tested on: SK-MEL-28
SF-539 = tested on: SF-539
SW-620 = tested on: SW-620
SK-OV-3 = tested on: SK-OV-3
NCI-H226 = tested on: NCI-H226
NCI-H522 = tested on: NCI-H522
LOX IMVI = tested on: LOX IMVI
Malme-3M = tested on: Malme-3M
NCI/ADR-RES = tested on: NCI/ADR-RES

Measured: GI50

Cc1cc(O)c(O)c(Oc2cc(C)cc(O)c2O)c1
9.14 µM: HCT-15
inactive: DU-145 23.3 µM | UO-31 18.5 µM | MDA-MB-435 12.7 µM | HL-60 1.99 µM | U-251 9.79 µM | K562 15.1 µM | SK-MEL-2 21.5 µM | OVCAR-3 4.48 µM | HCC 2998 32 µM | A549 73.1 µM | IGROV-1 12.4 µM | UACC-257 6.07 µM | CAKI-1 32 µM | Hs-578T 48.4 µM | OVCAR-4 13.4 µM | A498 > 100 µM | MDA-MB-231 20.3 µM | T47D 26.7 µM | HCT-116 14.5 µM | COLO 205 20.1 µM | HT-29 20.8 µM | SR 6.7 µM | SN12C 13.2 µM | OVCAR-8 16.2 µM | SF-295 14.8 µM | KM12 22 µM | OVCAR-5 34.2 µM | BT-549 20.1 µM | SF-268 17.8 µM | RPMI-8226 31.1 µM | MCF7 13.1 µM | PC-3 21.9 µM | SNB-19 35.9 µM | 786-0 18.2 µM | NCI-H460 11.1 µM | EKVX 16 µM | MOLT-4 10 µM | RXF 393 24.5 µM | M14 14.3 µM | HOP-92 16.6 µM | MDA-N 18.7 µM | ACHN 11.6 µM | UACC-62 11.7 µM | HOP-62 67.6 µM | SK-MEL-5 33.9 µM | CCRF-CEM 2.37 µM | NCI-H23 25.6 µM | SNB-75 75.7 µM | TK-10 17.1 µM | SK-MEL-28 32.2 µM | SF-539 23.3 µM | SW-620 16.9 µM | SK-OV-3 36.8 µM | NCI-H226 18.4 µM | NCI-H522 15 µM | LOX IMVI 4.57 µM | Malme-3M > 10 µM

CC(C)(C)c1cc(C2COC(c3cc(C(C)(C)C)c(O)c(C(C)(C)C)c3)CO2)cc(C(C)(C)C)c1O (configuration not stated)
> 100 µM: HCT-15
inactive: DU-145 > 100 µM | NCI/ADR-RES > 100 µM | UO-31 > 100 µM | MDA-MB-435 > 100 µM | U-251 90.4 µM | K562 > 100 µM | SK-MEL-2 > 100 µM | OVCAR-3 > 100 µM | A549 > 100 µM | IGROV-1 > 100 µM | UACC-257 > 100 µM | CAKI-1 > 100 µM | Hs-578T > 100 µM | OVCAR-4 > 100 µM | A498 > 100 µM | MDA-MB-231 > 100 µM | T47D > 100 µM | HCT-116 51.6 µM | COLO 205 33.1 µM | HT-29 > 100 µM | SN12C > 100 µM | OVCAR-8 > 100 µM | SF-295 > 100 µM | KM12 > 100 µM | OVCAR-5 > 100 µM | BT-549 > 100 µM | SF-268 > 100 µM | RPMI-8226 > 100 µM | MCF7 > 100 µM | PC-3 > 100 µM | SNB-19 > 100 µM | 786-0 > 100 µM | EKVX > 100 µM | RXF 393 > 100 µM | M14 > 100 µM | HOP-92 > 100 µM | MDA-N > 100 µM | ACHN > 100 µM | UACC-62 > 100 µM | HOP-62 > 100 µM | SK-MEL-5 > 100 µM | CCRF-CEM > 100 µM | NCI-H23 > 100 µM | SNB-75 > 100 µM | TK-10 > 100 µM | SK-MEL-28 > 100 µM | SF-539 > 100 µM | SW-620 > 100 µM | SK-OV-3 > 100 µM | NCI-H226 > 100 µM | NCI-H522 > 100 µM | LOX IMVI > 100 µM | Malme-3M > 100 µM
